What is called logP is a log measure of how a compound divides between an organic and an aqueous phase. Low values mean lower lipophilicity, high ones higher lipophilicity. One may read the logD as lipophilicity at a set pH, counting ionised and neutral species. A lower logD goes with lower lipophilicity.

Take `NS(=O)(=O)c1cc2c(cc1Cl)NC(C(F)(F)F)NS2(=O)=O` (centres undefined): the logP was determined as 0.49. `CNC12CC=CCC1c1ccccc1C2` (centres undefined) came in with a logP of 3.28.

Take `CCON1C(=O)CC2(CCCC2)C1=O`: the log partition coefficient (logP) was 1.26. In turn, `CCOC(=O)C1=CNC2CCCCN2C1=O` (centres undefined) showed a logP of 0.57. The same measure, in the same setting: then `COc1c(Cl)cc(Cl)c(O)c1C(=O)NCC1CCCN1CCF` (centres undefined), with 3.66. Regarding `Cc1ncc([N+](=O)[O-])n1CCOC(N)=O`, the lipophilicity (logP) is -0.29. Take `Cc1cc(=O)c(=O)[nH][nH]1`: the logP was -0.3. `Nc1nc(=O)c2[nH]c(N)c(Cc3cccs3)c2[nH]1` returned a logP of 1.01. Turning to `CCCCCCC(=O)N(C)c1ccc(S(=O)(=O)N(C)C)cc1`, the logP was found to be 2.61. Take `CCCC(CC)C(=O)O` (centres undefined): the logP amounted to 2.23.

Compound `c1cc(CN2CCCCC2)cc(OCCCNc2nc3ccccc3s2)c1` had a logP of 5.41. Compound `Clc1ccncc1` yielded a logP of 1.28. For the compound `CNC(=O)N(C)c1nnc(C(F)(F)F)s1`, the logP came to 1.85. `NC(=O)COc1ccc(OCCNCC(O)COc2ccccc2)cc1` (centres undefined) registered a logP of 1.1. For `C=CC12COC(=O)C(=C)C1C1OC(=O)C(=C)C1C(OC(=O)C(=C)C)C2` (centres undefined), the log partition coefficient (logP) turned out to be 1.56. For `COC(=O)c1cnc2n(c1=O)CCCC2`, the logP was -0.25.

As to `O=c1[nH]c(=S)ccn1[C@H]1C=C[C@@H](CO)O1`, the logP was -0.28. In the case of `CCCCN1Cn2c(nc3ccccc3c2=O)C1C` (centres undefined), the logP turned out to be 1.6.

Compound `CN(C)C(=O)OCc1ccc(C(N)=O)cc1` gave a logP of 0.77. Compound `Nc1cccc(Cl)c1Cl` displayed a logP of 2.82.

Turning to `NC(=S)c1ccc(Cl)cc1`, the logP was determined as 2.4.

`O=c1[nH]c(=O)n(C2OC(CO)CC2F)cc1Cl` (centres undefined) returned a logP of -0.28.

The compound `CCC(CC)COC(N)=O` showed a logP of 1.98. `O=C1CC2(CCCC2)C(=O)N1OCc1ccccc1`: the logP amounted to 2.3.

The compound `Cc1ccc(C)c(C)c1C` returned a logP of 4. In turn, `O=c1[nH]c(=O)n(Cc2ccccc2)cc1F` returned a lipophilicity (logP) of 0.89. Consider `CNC(=S)NCCCCC(NC(=O)C(CC(=O)N1CCOCC1)Cc1cccc2ccccc12)C(=O)NC(CC1CCCCC1)C(O)CC(=O)NCCN1CCOCC1` (centres undefined), for which the logP stood at 1.68.

`Nc1ccc(S(=O)(=O)c2c(O)cc(O)cc2O)cc1` gave a logP of 1.53. This logP and that of the compound before are within 0.2 log units of each other. Take `CC(C)Cc1ccc(CC(=O)O)cc1`: the logP is 3.35.

Compound `CCOC(=O)Nc1ccc2c(c1)N(C(=O)CCN1CCOCC1)c1ccccc1S2` returned a logP of 2.98.

For the compound `Cc1c(O)c(=O)ccn1C`, the logP was -0.77. With `CCOC(=O)C1=C(C)NC(C)=C(C(=O)OCC)C1c1ccccc1/C=C/C(=O)OC(C)(C)C`, the logP was 5.2. The same measure, in the same setting: then `Nc1nc(=O)c2[nH]c(N)c(Cc3ccsc3)c2[nH]1`, with 1.08; and `CCN1CCc2nc(N)oc2CC1`, with 0.05; and `CCC1(c2ccccc2)NC(=O)N(C)C1=O` (centres undefined), with 1.69. Compound `CNC(=S)NCCCCc1nc[nH]c1C` returned a logP of 0.85. For the compound `COc1ccc2c3c1O[C@H]1[C@@H](O)C=C[C@H]4[C@@H](C2)N(C)CC[C@@]341.O=P(O)(O)O`, under “pH 7.4”, the logD is -1.4.

The compound `CCNC(=O)NCCCn1nc(-c2ccccc2)ccc1=O` had a logP of 1.68. Turning to `CC[C@H](C)C(=O)O[C@H]1CCC=C2C=C[C@H](C)[C@H](CC[C@@H]3C[C@@H](O)CC(=O)O3)[C@H]21`, the logP amounted to 3.95. Regarding `CCCC(=O)OCn1cc2c(=O)[nH]cnc2n1`, the log partition coefficient (logP) is 0.33. The compound `Cc1ccc(C(=O)CCN2CCCCC2)c(C)c1` displayed a logP of 3.71. With `CNc1cnn(-c2ccccc2)c(=O)c1Cl`, the logP was found to be 1.19. Compound `ClC(Cl)Br` had a logP of 2. In turn, `CCNc1nc(C)c(C(=O)CCN(C)C)s1` came in with a logP of 2.21.

In turn, `CCCCC(=O)OCC1OC(n2cc(F)c(=O)[nH]c2=O)CC1OC(=O)CCCC` (centres undefined) yielded a logP of 2.72.

Regarding `O=c1ccnc2n1CCCC2`, the logP is -0.14. Consider `CCCCCCCCn1ccc(=O)c(O)c1C`, for which the logP is 2.88. The compound `O=C(Cc1nc(I)c([N+](=O)[O-])[nH]1)NCc1cccnc1` displayed a logP of 0.88. In turn, `FC(F)(F)c1nc2c(Cl)c(Cl)c(Cl)cc2[nH]1` came in with a logP of 3.87. The same measure, in the same setting: then `CCc1c(O)c(=O)ccn1CCOC`, with 0.04.

Turning to `CCc1c(C)nc2n(c1=O)C(C)CCC2` (centres undefined), the log partition coefficient (logP) amounted to 1.43. Take `CN1C(O)C(O)C(O)C(O)C1CO` (centres undefined): the logP is -2.4. `O=c1[nH]c(=O)n(Cc2ccc(Cl)cc2)cc1F` yielded a logP of 1.64. `COC(=O)NC1=NCC(c2cccc(Br)c2)N1` (centres undefined) had a logP of 2.09. On the same count and under the same terms, the result for `CCOC(=O)c1cnc2n(c1=O)CCC(C)C2` (centres undefined) reads 0.66. Still for that read-out and setting: the result for `Cc1nc2ccccn2c(=O)c1C` reads 1. For `CCCc1c(C)nc2ccccn2c1=O`, the lipophilicity (logP) turned out to be 1.75. `O=C1CN=C(c2ccccn2)c2cc(Br)ccc2N1` yielded a logP of 2.05.

For the compound `CC1CCCC2C1N2CC(O)Cn1ccnc1` (centres undefined), the logP is 1.55. The compound `CCCCCCCCN(C)N=Nc1[nH]cnc1C(N)=O` yielded a logP of 3.22. Still for that read-out and setting: the result for `COc1ncnc(NS(=O)(=O)c2ccc(N)cc2)c1OC` reads 0.7. In turn, `NS(=O)(=O)c1cc2c(cc1Cl)NC(c1ccccc1)=NS2(=O)=O` returned a lipophilicity (logP) of 1.4. On the same count and under the same terms, then `CCCCCn1ccc(=O)c(O)c1C`, with 1.24; and `N=C(NCC#CCC(NC(=O)C(Cc1ccc2ccccc2c1)Cc1cccc2ccccc12)C(=O)NC(CC1CCCCC1)C(O)CC(=O)NCCN1CCOCC1)N[N+](=O)[O-]` (centres undefined), with 4.73; and `COc1cc(C(N)=O)ccc1-c1cn2cccnc2n1`, with 0.7. On the same count and under the same terms, then `CCCN1CCOC2c3cc(O)ccc3OCC21` (centres undefined), with 1.97; and `CCN(CC)c1cccc(S(=O)(=O)[O-])c1.[Na+]`, with -1.6; and `O=C(Nc1ccn(C2CC(O)C(CO)O2)c(=O)n1)c1ccccc1` (centres undefined), with 0.67. For the compound `Clc1cc(Cl)cc(-c2cc(Cl)cc(Cl)c2)c1`, the logP stood at 6.6. The compound `CCC(=O)n1c(=O)[nH]cc(F)c1=O` showed a log partition coefficient (logP) of 0.19. For the compound `CC(C)c1ccc(OCC(OC(=O)n2ccnc2)C(C)(C)C)cc1` (centres undefined), the logP was determined as 4.77. Compound `N#Cc1cccnc1` showed a logP of 0.36. `O=C1C=CC(=O)c2c(O)ccc(O)c21` returned a logP of 1.79. Consider `CN(Cc1ccccc1)C(=O)C(Cc1ccccc1)NC(=O)C(Cc1cn(C(=O)OCc2ccccc2)c2ccccc12)NC(=O)CC1NC(=O)C2C3CCC(CC3)N2C1=O` (centres undefined), for which the logP was 5.66.

Compound `O=C(Cc1cccnc1)NN1CC=CCC1` showed a logP of 0.05. As for `NC1C2CCC1c1ccc(C(F)(F)F)cc1C2` (centres undefined), the logP amounted to 3.54. `O=C(O)CCCC(=O)c1ccccc1` gave a logP of 1.49. As to `NS(=O)(=O)c1cc2c(cc1Cl)N=C(Cc1ccccc1)NS2(=O)=O`, the logP came out at 1.7. Still for that read-out and setting: then `Cc1cc(C(=O)O)ccc1N`, with 1.37. Same read-out and setting: then `CCOP(=O)(O)Cc1ccc(Cl)cc1`, with 1.6; and `CCc1nc(S(=O)(=O)Nc2c(F)cccc2F)nn1-c1ccccc1`, with 3.7. `CC1(C)S[C@@H]2[C@H](NC(=O)C3(N)CCCCC3)C(=O)N2[C@H]1C(=O)O` returned a log partition coefficient (logP) of 1.31.

Regarding `COC(=O)Nc1nc2cc(C(=O)c3ccccc3)ccc2[nH]1`, the logP is 2.83. In the case of `CCOC(=O)CN(C(=O)CCl)c1ccccc1OC(C)C`, the logP came out at 2.75.

On to `CN1C(=O)C(C)(C2=CCCCC2)C(=O)N=C1O` (centres undefined), for which the logP was 1.98.

For `O=[N+]([O-])c1c(Cl)c(Cl)c(Cl)c(Cl)c1Cl`, the logP was found to be 4.64. Still for that read-out and setting: the result for `CNc1nc(C)c(C(=O)CCN2CCCC2)s1` reads 1.86; that for `CNC(=S)NCC#CCC(NC(=O)C(Cc1ccc2ccccc2c1)Cc1cccc2ccccc12)C(=O)NC(CC1CCCCC1)C(O)CC(=O)NCCN1CCOCC1` (centres undefined), 5.46; that for `CCC1(O)CC2CN(CCc3c([nH]c4ccccc34)C(C(=O)OC)(c3cc4c(cc3OC)N(C)C3C(O)(C(=O)OC)C(OC(=O)CN(C)C)C5(CC)C=CCN6CCC43C65)C2)C1` (centres undefined), 4.02.

The values are drawn from the OPERA property sets (Mansouri et al. 2018).
